Measurements: paper PMC9870012 (Journal of Enzyme Inhibition and Medicinal Chemistry, 2023)

Legend:
human meprin β = molecular target: T1, human meprin β (Homo sapiens, UniProt Q16820); assay type: biochemical; settings: for Ki: Ki(app) Meprin β, geometric mean of three independent experiments with standard deviation factor; for increased inhibition of meprin β by factor: in comparison to the N-phenyl pyrazole 21b
T1 sequence (Q16820 62-701): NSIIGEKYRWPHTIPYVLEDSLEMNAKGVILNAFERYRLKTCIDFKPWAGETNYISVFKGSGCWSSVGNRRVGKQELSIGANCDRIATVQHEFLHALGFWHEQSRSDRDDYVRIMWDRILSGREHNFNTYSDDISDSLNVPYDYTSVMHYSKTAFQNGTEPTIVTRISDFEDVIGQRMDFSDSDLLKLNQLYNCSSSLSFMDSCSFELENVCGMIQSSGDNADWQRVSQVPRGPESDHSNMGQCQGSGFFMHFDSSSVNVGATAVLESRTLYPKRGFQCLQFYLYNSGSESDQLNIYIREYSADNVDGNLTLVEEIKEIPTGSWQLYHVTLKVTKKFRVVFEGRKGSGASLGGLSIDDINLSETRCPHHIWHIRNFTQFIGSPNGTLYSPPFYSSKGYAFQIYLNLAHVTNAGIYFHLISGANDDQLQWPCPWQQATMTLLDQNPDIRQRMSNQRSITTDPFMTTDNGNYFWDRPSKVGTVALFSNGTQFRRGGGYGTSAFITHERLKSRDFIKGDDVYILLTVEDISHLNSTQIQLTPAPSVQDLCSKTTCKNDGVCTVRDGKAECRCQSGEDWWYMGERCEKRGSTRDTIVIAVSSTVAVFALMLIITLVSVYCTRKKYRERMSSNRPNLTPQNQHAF

human meprin α = molecular target: T2, human meprin α (Homo sapiens, UniProt Q16819); assay type: biochemical; settings: for Ki: Ki(app) Meprin α, geometric mean of three independent experiments with standard deviation factor; for SF: selectivity factor (Ki(app) meprin β/Ki(app) meprin α): meprin α over meprin β; for reduction of the meprin α selectivity by factor: compared to 16a
T2 sequence (Q16819 66-746): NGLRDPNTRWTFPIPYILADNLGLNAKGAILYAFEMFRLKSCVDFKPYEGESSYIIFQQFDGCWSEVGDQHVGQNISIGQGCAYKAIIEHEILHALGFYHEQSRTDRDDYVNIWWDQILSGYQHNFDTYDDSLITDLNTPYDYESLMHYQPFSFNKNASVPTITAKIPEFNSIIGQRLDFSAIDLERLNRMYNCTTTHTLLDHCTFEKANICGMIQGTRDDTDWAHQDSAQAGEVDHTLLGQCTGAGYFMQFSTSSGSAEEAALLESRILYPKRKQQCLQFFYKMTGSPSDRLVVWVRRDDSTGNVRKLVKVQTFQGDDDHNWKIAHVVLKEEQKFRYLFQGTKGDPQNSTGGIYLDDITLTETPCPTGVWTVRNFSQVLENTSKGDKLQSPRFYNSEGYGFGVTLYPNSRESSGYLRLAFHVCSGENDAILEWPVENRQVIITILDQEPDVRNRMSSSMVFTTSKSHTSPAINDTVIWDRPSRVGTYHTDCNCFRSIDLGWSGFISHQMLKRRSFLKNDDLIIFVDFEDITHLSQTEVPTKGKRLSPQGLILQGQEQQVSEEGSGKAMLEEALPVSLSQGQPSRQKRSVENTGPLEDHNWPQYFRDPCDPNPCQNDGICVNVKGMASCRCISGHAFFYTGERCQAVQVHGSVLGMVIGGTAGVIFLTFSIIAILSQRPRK

SMILES | Ki (human meprin β) [nM] | Ki (human meprin α) [nM] | SF: selectivity factor (Ki(app) meprin β/Ki(app) meprin α) (human meprin α) | reduction of the meprin α selectivity by factor (human meprin α) | improvement in activity against meprin β by factor (human meprin β; compared to 7a) | increased inhibition of meprin β by factor (human meprin β)
O=C(Cc1c(-c2ccc(C(=O)O)cc2)n[nH]c1-c1cccc(C(=O)O)c1)NO [16g, 3-[3-(4-Carboxyphenyl)-4-[2-(hydroxyamino)-2-oxo-ethyl]-1H-pyrazol-5-yl]benzoic acid] | 32.5 | 20.3 | 2 |  |  | 
O=C(Cc1c(-c2ccc3c(c2)OCO3)n[nH]c1-c1cccc(C(=O)O)c1)NO [16e, 3-[3-(1,3-Benzodioxol-5-yl)-4-[2-(hydroxyamino)-2-oxo-ethyl]-1H-pyrazol-5-yl)benzoic acid] |  | 3.1 | 15 | 10–20 |  | 
N#Cc1ccc(-c2n[nH]c(-c3ccccc3)c2CC(=O)NO)cc1 [14i, 2-[3-(4-Cyanophenyl)-5-phenyl-1H-pyrazol-4-yl]ethanehydroxamic acid] |  | 13.6 | 71 |  |  | 
O=C(Cc1c(-c2ccc(C(=O)O)cc2)n[nH]c1-c1ccc(C(=O)O)cc1)NO [16c, 4-[3-(4-Carboxyphenyl)-4-[2-(hydroxyamino)-2-oxo-ethyl]-1H-pyrazol-5-yl]benzoic acid] |  |  | 2 |  |  | 
O=C(Cc1c(-c2ccc(C(=O)O)cc2)n[nH]c1-c1ccccc1)NO [14k, 4-[4-[2-(Hydroxyamino)-2-oxo-ethyl]-5-phenyl-1H-pyrazol-3-yl]benzoic acid] |  | 17.2 | 7 |  |  | 
O=C(Cc1c(-c2ccccc2)[nH]nc1[C@H]1CC[C@H](C(=O)O)CC1)NO [14s, Trans-4-[4-[2-(hydroxyamino)-2-oxo-ethyl]-5-phenyl-1H-pyrazol-3-yl]cyclohexanecarboxylic acid] |  | 11.6 | 8 |  |  | 
O=C(Cc1c(-c2ccc(Cl)c(O)c2F)n[nH]c1-c1ccccc1)NO [14l, 2-[3-(4-Chloro-2-fluoro-3-hydroxyphenyl)-5-phenyl-1H-pyrazol-4-yl]ethanehydroxamic acid] |  | 2.2 | 31 |  |  | 
O=C(Cc1c(-c2ccccc2)nn(Cc2ccccc2)c1-c1ccccc1)NO [21e, 2-(1-Benzyl-3,5-diphenyl-pyrazol-4-yl)ethanehydroxamic acid] | 291 | 1 | 291 |  |  | 
O=C(Cc1c(-c2cccc(C(=O)O)c2)n[nH]c1-c1cccc(C(=O)O)c1)NO [16b, 3-[3-(3-Carboxyphenyl)-4-[2-(hydroxyamino)-2-oxo-ethyl]-1H-pyrazol-5-yl]benzoic acid] | 14.5 |  | 1 |  |  | 
O=C(Cc1c(-c2ccccc2)[nH]nc1[C@H]1CC[C@@H](C(=O)O)CC1)NO [14t, Cis-4-[4-[2-(hydroxyamino)-2-oxo-ethyl]-5-phenyl-1H-pyrazol-3-yl]cyclohexanecarboxylic acid] |  |  | 4 |  |  | 
O=C(Cc1c(-c2ccc(C(=O)O)cc2)n[nH]c1-c1ccc(Cl)c(O)c1F)NO [16h, 4-[5-(4-Chloro-2-fluoro-3-hydroxy-phenyl)-4-[2-(hydroxyamino)-2-oxo-ethyl]-1H-pyrazol-3-yl]benzoic acid] | 11.2 | 9.6 | 1 |  |  | 
O=C(Cc1c(-c2cccc(-c3nnn[nH]3)c2)n[nH]c1-c1ccccc1)NO [14p, 2-[5-Phenyl-3-[3-(1H-tetrazol-5-yl)phenyl]-1H-pyrazol-4-yl]ethanehydroxamic acid] | 6.7 | 0.7 | 10 |  | 16 | 
O=C(Cc1c(-c2ccc(Cl)c(O)c2F)n[nH]c1-c1ccc(Cl)c(O)c1F)NO [16d, 2-[3,5-Bis(4-chloro-2-fluoro-3-hydroxyphenyl)-1H-pyrazol-4-yl]ethanehydroxamic acid] |  | 4.2 | 3 |  |  | 
O=C(Cc1c(-c2ccccc2)nn(-c2cccc(C(=O)O)c2)c1-c1ccccc1)NO [21c, 3-[4-[2-(Hydroxyamino)-2-oxo-ethyl]-3,5-diphenyl-pyrazol-1-yl]benzoic acid] | 212 | 4 | 53 |  |  | 3
O=C(Cc1c(-c2cccc(C(=O)O)c2)n[nH]c1-c1ccccc1)NO [14j, 3-[4-[2-(Hydroxyamino)-2-oxo-ethyl]-5-phenyl-1H-pyrazol-3-yl]benzoic acid] |  | 7.5 | 6 |  |  | 
O=C(Cc1c(-c2ccccc2)nn(-c2ccc(C(=O)O)cc2)c1-c1ccccc1)NO [21d, 4-[4-[2-(Hydroxyamino)-2-oxo-ethyl]-3,5-diphenyl-pyrazol-1-yl]benzoic acid] | 182 | 4 | 46 |  |  | 3
O=C(Cc1c(-c2cccc(C(=O)O)c2)[nH]nc1[C@H]1CC[C@H](C(=O)O)CC1)NO [16l, 3-[3-(Trans-4-Carboxycyclohexyl)-4-[2-(hydroxyamino)-2-oxo-ethyl]-1H-pyrazol-5-yl]benzoic acid] |  |  | 1 |  |  | 
O=C(Cc1c(-c2c[nH]nc2C(F)(F)F)n[nH]c1-c1ccccc1)NO [14o, 2-[5-Phenyl-3-[3-(trifluoromethyl)-1H-pyrazol-4-yl]-1H-pyrazol-4-yl]ethanehydroxamic acid] |  | 1.6 | 55 |  |  | 
O=C(Cc1c([C@@H]2CCCC[C@@H]2C(=O)O)n[nH]c1-c1cccc(C(=O)O)c1)NO (relative stereo) [16k, 3-[4-[2-(Hydroxyamino)-2-oxo-ethyl]-3-[cis-2-carboxycyclohexyl]-1H-pyrazol-5-yl]benzoic acid] | 5.2 | 0.4 | 13 |  |  | 
O=C(Cc1c(-c2cc(O)no2)n[nH]c1-c1ccccc1)NO [14n, 2-[3-(3-Hydroxyisoxazol-5-yl)-5-phenyl-1H-pyrazol-4-yl]ethanehydroxamic acid] |  |  | 1 |  |  | 
O=C(Cc1c(C2CCCC(C(=O)O)C2)n[nH]c1-c1ccccc1)NO (centres unmarked) [14r, 3-[4-[2-(Hydroxyamino)-2-oxo-ethyl]-5-phenyl-1H-pyrazol-3-yl]cyclohexanecarboxylic acid] |  | 1.4 | 39 |  |  | 
N#Cc1cccc(-c2n[nH]c(-c3ccccc3)c2CC(=O)NO)c1 [14h, 2-[3-(3-Cyanophenyl)-5-phenyl-1H-pyrazol-4-yl]ethanehydroxamic acid] |  | 4.8 | 67 |  |  | 
O=C(Cc1c(C2CCCC2)n[nH]c1-c1ccccc1)NO [14c, 2-(3-Cyclopentyl-5-phenyl-1H-pyrazol-4-yl)ethanehydroxamic acid] |  | 5.6 | 53 |  |  | 
COc1ccc(-c2n[nH]c(-c3ccccc3)c2CC(=O)NO)cc1 [14e, 2-[3-(4-Methoxyphenyl)-5-phenyl-1H-pyrazol-4-yl]ethanehydroxamic acid] |  | 1.3 | 48 |  |  | 
O=C(Cc1c(-c2ccc3c(c2)OCO3)n[nH]c1-c1ccc(C(=O)O)cc1)NO [16f, 4-[3-(1,3-Benzodioxol-5-yl)-4-[2-(hydroxyamino)-2-oxo-ethyl]-1H-pyrazol-5-yl)benzoic acid] |  | 10.5 | 9 | 10–20 |  | 
Cc1n[nH]c(-c2ccccc2)c1CC(=O)NO [14a, 2-(3-Methyl-5-phenyl-1H-pyrazol-4-yl)ethanehydroxamic acid] |  |  | 7 |  |  | 
O=C(Cc1c(Cc2ccccc2)n[nH]c1-c1ccccc1)NO [14b, 2-(3-Benzyl-5-phenyl-1H-pyrazol-4-yl)ethanehydroxamic acid] |  |  | 25 |  |  | 
O=C(Cc1c(-c2cccc(C(=O)O)c2)n[nH]c1-c1ccc(Cl)c(O)c1F)NO [16i, 3-[5-(4-Chloro-2-fluoro-3-hydroxy-phenyl)-4-[2-(hydroxyamino)-2-oxo-ethyl]-1H-pyrazol-3-yl]benzoic acid] |  | 5.1 | 1 |  |  | 
